In patent US20240216444A1, “DESIGNED BACTERIAL COMPOSITIONS” (Seres Therapeutics, Inc., priority 2015, published 2024):
Like-named read-outs stand apart in the source and are kept apart here.

Assays:
[1] = tested on: bile salt hydrolase (BSH) activity on conjugated bile acids; experiment: LC-MS screen for bile salt hydrolase (BSH) activity; settings: for BSH gCA: substrate gCA; for BSH gCDCA: substrate gCDCA; for BSH t-aMCA: substrate t-aMCA; for BSH t-bMCA: substrate t-bMCA; for BSH tCA: substrate tCA; for BSH tCDCA: substrate tCDCA
Procedure: To conduct the assay, briefly, bacteria were grown on permissive agar media plates for 24 to 48 hours to generate sufficient biomass to carry out assays. The bacterial lawns were resuspended in PBS to create a homogenous suspension that was then used for the BSH assay. To assay for BSH activity, bacterial suspensions were incubated with two separate mixtures of four distinct conjugated bile acids, each at concentration of 150 μg/ml, for 4 hours at 37° C. under anaerobic conditions. The reaction mixture was then extracted with an equal volume of acetonitrile, spun down to pellet bacteria and the supernatant filtered through a 0.2 μM filter to generate a sample for LC-MS analysis. Bile acids were determined using an Agilent 1260 HPLC coupled to a Bruker Compact qTOF MS. Samples were run on a bidentate C18 column using an acetonitrile:water buffer system to separate bile acids which were then ionized in negative mode and identified using a qTOF-MS. BSH activity was determined by the formation of deconjugated bile acid products that were verified by comparison to known standards and quantified, if necessary, using standard curves.

[2] = tested on: 7α-dehydroxylation of cholic acid and chenodeoxycholic acid; experiment: LC-MS screen for 7α-dehydroxylation (7α-OH) activity; assay type: biochemical
[3] = tested on: HSDH activity (7-, 3- or 12-hydroxyl groups) on cholic, chenodeoxycholic, deoxycholic and lithocholic acid; experiment: LC-MS screen for hydroxysteroid dehydrogenase (HSDH) activity; assay type: biochemical
[4] = tested on: C. difficile carbon sources; experiment: Carbon source utilization, 87 carbon sources in three base media, OD600 and acid production (Example 3B); assay type: cell-based; parameters: key: “+” and “w” refer to “positive” and “weak” utilization of the carbon source, respectively; “+” and “w” refer to “positive” and “weak” utilization of the carbon source, respectively
From the text: Three C. difficile strains and 12 non-C. difficile bacterial strains were profiled using a panel of carbon sources. As used herein, unless otherwise indicated, carbon sources includes all sources tested as growth substrates in the experiments herein. The three C. difficile strains were Clostridium difficile ATCC 9689, Clostridium difficile ATCC 43593, and Clostridium difficile ATCC 43255, all of which are available from the American Type Culture Collection (ATCC).
Growth of the strains was tested on 87 different carbon sources in a 96-well plate format. The panel contained 34 carbon sources reported to be utilized by C. difficile in the literature (Hafiz and Oakley. 1976 J Med Microbiol 9:129-36; Wilson and Perini. 1988 Infection and Immunity 56:2610-14; Bergey and Holt. Bergey's Manual of Determinative Bacteriology. Baltimore: Williams & Wilkins, 1994; Sebaihia et al. 2006 Nature Genetics 38:779-786) including amino acids, mono-, di-, tri- and polysaccharides, glucoside and sugar alcohols. Carbon sources were added at 0.5% into three different base media (Base medium 1 SSNC composition: beef extract 1 g/L, yeast extract 2 g/L, bacto soytone 6 g/L, NaCl 4 g/L, KH2PO4 5.44 g/L, MgSO4 2 mM, CaCl2 1 mM, MnCl2 0.1 mM, cysteine hydrochloride 0.25 g/L, hemin 10 mg/L, menadione 1 mg/L, MOPS 6.3 g/L, pH 7; Base medium 2 SPOSCR composition: beef extract 1 g/L, yeast extract 2 g/L, bacto soytone 6 g/L, NaCl 4 g/L, KH2PO4 5.44 g/L, MgSO4 2 mM, CaCl2) 1 mM, MnCl2 0.1 mM, cysteine hydrochloride 0.25 g/L, hemin 10 mg/L, menadione 1 mg/L, MOPS 8.4 g/L, NaHCO3 0.4%, pH 7; Base medium 3 YCFA: casitone 10 g/L, yeast extract 2.5 g/L, cysteine hydrochloride 1 g/L, hemin 10 mg/L, ATCC vitamin solution 10 mL/L, ATCC trace element solution 10 mL/L, K2HPO4 0.45 g/L, KH2PO4 0.45 g/L, (NH4)2SO4 0.9 g/L, MgSO4×7H2O 90 mg/L, CaCl2) 90 mg/L, acetic acid 33 mM, propionic acid 9 mM, isobutyric acid 1 mM, isovaleric acid 1 mM, valeric acid 1 mM, pH 7).
Positive growth was scored by measuring optical density at 600 nm and comparing it to growth in base medium without an added carbon source. For two, base media acid production was also scored by measuring optical density at 558 nm of pH-indicator phenol red mixed with spent medium from each culture.

[5] = Indole spot test of supernatants on paper soaked with Indole Reagent; settings: 4 μL spotted on paper soaked with Indole Reagent
[6] = molecular target: HDAC enzymes (HeLa nuclear extract); experiment: HDAC-Glo I/II assay with serial dilutions of SCFAs; assay type: biochemical; settings: for HDAC inhibition activity at the highest tested concentration: 3.75 mM
Procedure: For this experiment, the HeLa nuclear extract provided in the kit was used as the source of HDAC enzymes. […] In this assay, deacetylation of the provided substrate by HDACs results in a luminescence signal that is detected with a suitable plate reader (Spectramax m5). HDAC inhibition decreases the luminescence signal compared to the no inhibitor control. The experiment was carried out according to the manufacturer's instructions as follows: 50 μL of HeLa nuclear extract diluted 1:3000 in assay buffer was mixed with 50 μL of inhibitor solution (serial dilutions of SCFAs in assay buffer) and incubated for 30 minutes. 100 μL of developer solution were added to each well, and luminescence was measured after 45 minutes of incubation at room temperature.

[7] = LC-MS, substrate chenodeoxycholic acid

Clostridium symbiosum
BSH gCA [1]: +/− (‘+/−’ indicates ≤50-fold change in product bile acid levels, suggesting weak activity) | BSH gCDCA [1]: + (‘+’ indicates greater than 50-fold increase in levels of product bile acid, suggesting strong activity) | BSH t-aMCA [1]: − | BSH t-bMCA [1]: − | BSH tCA [1]: − | BSH tCDCA [1]: +/− (‘+/−’ indicates ≤50-fold change in product bile acid levels, suggesting weak activity) | 7a Dehydrox CDCA [2, 7]: − | 7a Dehydrox CA ([2]; LC-MS, substrate cholic acid): − | HSDH 3a ([3]; LC-MS, 3a-HSDH): +/− (‘+/−’ indicates ≤50-fold change in product bile acid levels, suggesting weak activity) | HSDH 7a ([3]; LC-MS, 7a-HSDH): + (‘+’ indicates greater than 50-fold increase in levels of product bile acid, suggesting strong activity) | HSDH 12a ([3]; LC-MS, 12a-HSDH): −

Clostridium butyricum
7a Dehydrox CA [2]: − | 7a Dehydrox CDCA [2]: − | HSDH 3a [3]: − | HSDH 12a [3]: −

Blautia producta
BSH gCA [1]: − | BSH gCDCA [1]: − | BSH t-aMCA [1]: − | BSH t-bMCA [1]: − | BSH tCA [1]: − | BSH tCDCA [1]: − | 7a Dehydrox CA ([2]; LC-MS, substrate CA): − | 7a Dehydrox CDCA ([2]; LC-MS, substrate CDCA): − | utilization of carbon source Apple pectin ([4]; Apple pectin): + | utilization of carbon source Citrus pectin ([4]; Citrus pectin): + | utilization of carbon source NAG ([4]; NAG (N-acetylglucosamine)): + | utilization of carbon source alanine ([4]; alanine): + | utilization of carbon source asparagine ([4]; asparagine): + | utilization of carbon source cellobiose ([4]; cellobiose): + | utilization of carbon source cysteine ([4]; cysteine): w | utilization of carbon source dulcitol ([4]; dulcitol): + | utilization of carbon source esculin ([4]; esculin): + | utilization of carbon source formate ([4]; formate): + | utilization of carbon source fructose ([4]; fructose): + | utilization of carbon source glucose ([4]; glucose): + | utilization of carbon source glutamine ([4]; glutamine): w | utilization of carbon source glycochenodeoxycholate ([4]; glycochenodeoxycholate): w | utilization of carbon source mannitol ([4]; mannitol): + | utilization of carbon source mannose ([4]; mannose): + | utilization of carbon source melezitose ([4]; melezitose): + | utilization of carbon source oxalate ([4]; oxalate): w | utilization of carbon source polygalacturonate ([4]; polygalacturonate): + | utilization of carbon source rhamnose ([4]; rhamnose): + | utilization of carbon source ribose ([4]; ribose): + | utilization of carbon source salicin ([4]; salicin): + | utilization of carbon source serine ([4]; serine): + | utilization of carbon source sialic acid ([4]; sialic acid): + | utilization of carbon source sorbitol ([4]; sorbitol): + | utilization of carbon source sucrose ([4]; sucrose): + | utilization of carbon source taurochenodeoxycholate ([4]; taurochenodeoxycholate): w | utilization of carbon source threonine ([4]; threonine): w | utilization of carbon source trehalose ([4]; trehalose): + | utilization of carbon source xylitol ([4]; xylitol): + | utilization of carbon source xylose ([4]; xylose): + | HSDH 3a ([3]; LC-MS): − | HSDH 7a ([3]; LC-MS): − | HSDH 12a ([3]; LC-MS): −

c1ccc2[nH]ccc2c1 [Indole, indole]
colour in indole spot test [5]: light blue color

CCC(=O)O [propionate]
IC50 ([6]; HeLa nuclear extract, HDAC-Glo I/II, read-out: HDAC inhibition IC50): 2.4 mM

Clostridium_glycolicum
BSH gCA [1]: + (‘+’ indicates greater than 50-fold increase in levels of product bile acid, suggesting strong activity) | BSH gCDCA [1]: + (‘+’ indicates greater than 50-fold increase in levels of product bile acid, suggesting strong activity) | BSH t-aMCA [1]: + (‘+’ indicates greater than 50-fold increase in levels of product bile acid, suggesting strong activity) | BSH t-bMCA [1]: + (‘+’ indicates greater than 50-fold increase in levels of product bile acid, suggesting strong activity) | BSH tCA [1]: + (‘+’ indicates greater than 50-fold increase in levels of product bile acid, suggesting strong activity) | BSH tCDCA [1]: + (‘+’ indicates greater than 50-fold increase in levels of product bile acid, suggesting strong activity)

O=C(O)CCc1c[nH]c2ccccc12 [indole-3-propionic acid]
colour in indole spot test [5]: purple spots

Clostridium paraputrificum
BSH gCA [1]: + (‘+’ indicates greater than 50-fold increase in levels of product bile acid, suggesting strong activity) | BSH gCDCA [1]: + (‘+’ indicates greater than 50-fold increase in levels of product bile acid, suggesting strong activity) | BSH t-aMCA [1]: + (‘+’ indicates greater than 50-fold increase in levels of product bile acid, suggesting strong activity) | BSH t-bMCA [1]: + (‘+’ indicates greater than 50-fold increase in levels of product bile acid, suggesting strong activity) | BSH tCA [1]: + (‘+’ indicates greater than 50-fold increase in levels of product bile acid, suggesting strong activity) | BSH tCDCA [1]: + (‘+’ indicates greater than 50-fold increase in levels of product bile acid, suggesting strong activity)

Clostridium_sordellii
BSH gCA [1]: + (‘+’ indicates greater than 50-fold increase in levels of product bile acid, suggesting strong activity) | BSH gCDCA [1]: + (‘+’ indicates greater than 50-fold increase in levels of product bile acid, suggesting strong activity) | BSH t-aMCA [1]: + (‘+’ indicates greater than 50-fold increase in levels of product bile acid, suggesting strong activity) | BSH t-bMCA [1]: + (‘+’ indicates greater than 50-fold increase in levels of product bile acid, suggesting strong activity) | BSH tCA [1]: + (‘+’ indicates greater than 50-fold increase in levels of product bile acid, suggesting strong activity) | BSH tCDCA [1]: + (‘+’ indicates greater than 50-fold increase in levels of product bile acid, suggesting strong activity) | 7a Dehydrox CDCA [2, 7]: − | 7a Dehydrox CA ([2]; LC-MS, substrate cholic acid): − | HSDH 3a ([3]; LC-MS, 3a-HSDH): +/− (‘+/−’ indicates ≤50-fold change in product bile acid levels, suggesting weak activity) | HSDH 7a ([3]; LC-MS, 7a-HSDH): − | HSDH 12a ([3]; LC-MS, 12a-HSDH): −

CC(O)C(=O)O (centres unmarked) [Lactate]
HDAC inhibition activity at the highest tested concentration [6]: minimal HDAC inhibition activity

Clostridium sp_7_2_43FAA
7a Dehydrox CDCA [2, 7]: − | 7a Dehydrox CA ([2]; LC-MS, substrate cholic acid): − | HSDH 3a ([3]; LC-MS, 3a-HSDH): +/− (‘+/−’ indicates ≤50-fold change in product bile acid levels, suggesting weak activity) | HSDH 7a ([3]; LC-MS, 7a-HSDH): + (‘+’ indicates greater than 50-fold increase in levels of product bile acid, suggesting strong activity) | HSDH 12a ([3]; LC-MS, 12a-HSDH): −

NCCc1c[nH]c2ccccc12 [tryptamine]
colour in indole spot test [5]: purple spots

Cc1c[nH]c2ccccc12 [3-methyl-indole]
colour in indole spot test [5]: purple spots

CC(=O)O [acetate]
HDAC inhibition activity at the highest tested concentration [6]: minimal HDAC inhibition activity

Blautia_producta
7a Dehydrox CDCA [2, 7]: − | 7a Dehydrox CA ([2]; LC-MS, substrate cholic acid): − | HSDH 3a ([3]; LC-MS, 3a-HSDH): − | HSDH 7a ([3]; LC-MS, 7a-HSDH): − | HSDH 12a ([3]; LC-MS, 12a-HSDH): −

O=C(O)CCCc1c[nH]c2ccccc12 [indole-3-butyric acid]
colour in indole spot test [5]: purple spots
